The values that follow come from PMC3225262, “PeptX: Using Genetic Algorithms to optimize peptides for MHC binding” (BMC Bioinformatics, 2011).

Where no end group is shown, it is not given here.

In the assay the target is HLA-A*02:01 (Homo sapiens, UniProt P04439, D140Y/D185E/D98H/E176V/E277Q/G131W/G231S/I119V/I121R/I166T/I218V/L300P/L318F/N151K/N90K/P208A/P217A/Q86G/Q94H/R138H/R169H/T345S). The assay can be described thus: experimental peptide/MHC binding assay of the consensus peptides. Conditions: consensus peptides optimized for HLA-A*02:01; values below 0.5 nM are beyond the range of sensitivity of the assay; tested by co-operation partner (J. Sidney); read-out: experimental peptide/MHC binding affinity expressed as IC50. The source says:
Since a validation on the basis of existing public experimental data was not possible we were able to find a co-operation partner who tested our consensus peptides for experimental peptide/MHC binding affinity.
The authors thank J. Sidney for testing the IC50 binding affinities of the consensus peptides.
On to YLAEGLASL [YLAEGLASL], for which the IC50 was found to be 1.3 nM.
Regarding YMMEWMWYV [YMMEWMWYV], the IC50 is < 0.5 nM.
Consider WWWFFWYVW [WWWFFWYVW], for which the IC50 is 45 nM.
With MLWTMVFTV [MLWTMVFTV], the IC50 was < 0.5 nM.
As to FLWEVTPTV [FLWEVTPTV], the IC50 came out at 1.1 nM.
